Test results: US12187728B2 (Raze Therapeutics, Inc., priority 2015, dated 2025)

target: T1, Human MTHFD2 (Homo sapiens, UniProt P13995); test: MTHFD2 Activity Assay (dehydrogenase activity, diaphorase/resazurin coupled fluorescence); assay type: biochemical; settings: inhibitory activity (IC50 and/or binding constant); 0.2 nM MTHFD2, 11 concentrations
T1 construct: residues 36-350 in Uniport ID P13995; His6 (N); made in house; host or cells: E. coli
T1 sequence (P13995 36-350): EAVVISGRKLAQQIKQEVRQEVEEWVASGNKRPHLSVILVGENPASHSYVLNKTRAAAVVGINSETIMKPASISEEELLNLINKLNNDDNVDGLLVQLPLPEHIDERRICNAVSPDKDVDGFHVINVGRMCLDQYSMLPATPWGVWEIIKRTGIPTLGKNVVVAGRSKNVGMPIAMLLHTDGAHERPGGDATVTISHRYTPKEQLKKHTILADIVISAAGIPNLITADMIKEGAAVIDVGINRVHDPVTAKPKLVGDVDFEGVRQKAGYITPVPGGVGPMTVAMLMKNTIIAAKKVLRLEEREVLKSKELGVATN
Summary of the method: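 Resorufin fluorescence (ex 525, em 598 nm) reports NADH formed by the dehydrogenase via diaphorase coupling. Enzyme (0.2 nM, residues 36-350, N-His6) sat with compound 15 min before 70 μM CH2-THF and 1 mM NAD+ started a 30 min reaction. IC50s come from 4-parameter fits over 11 concentrations.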

Row | Structure (SMILES) | IC50 [nM]
1 | Cn1c(N[C@H]2C[C@H](CO)C2)nc2c1c(=O)n(Cc1cc3ccccc3[nH]1)c(=O)n2C [Example 295, 1-((1H-indol-2-yl)methyl)-8-((1R,3R)-3-(hydroxymethyl)cyclobutylamino)-3,7-dimethyl-1H-purine-2,6(3H,7H)-dione] | 10 to 1000
2 | Cn1c(Nc2ccc(C(=O)O)cc2)nc2c1c(=O)n(Cc1cc3ccccc3[nH]1)c(=O)n2C [Example 297, 4-[[1-(1H-indol-2-ylmethyl)-3,7-dimethyl-2,6-dioxo-purin-8-yl]amino]benzoic acid] | 10 to 1000
3 | Cn1c(Nc2ccc(CO)cc2)nc2c1c(=O)n(Cc1ccc(Cl)c(Cl)c1)c(=O)n2C [Example 298, 1-(3,4-dichlorobenzyl)-8-((4-(hydroxymethyl)phenyl)amino)-3,7-dimethyl-3,7-dihydro-1H-purine-2,6-dione] | 10 to 1000
4 | Cn1c(Nc2ccccn2)nc2c1c(=O)n(Cc1cc3c(Cl)cccc3[nH]1)c(=O)n2C [Example 302, 1-((4-chloro-1H-indol-2-yl)methyl)-3,7-dimethyl-8-(pyridin-2-ylamino)-1H-purine-2,6(3H, 7H)-dione] | 10 to 1000
5 | Cn1c(Nc2ccnc(C(=O)O)c2)nc2c1c(=O)n(Cc1ccc(Cl)c(Cl)c1)c(=O)n2C [Example 303, 4-(1-(3,4-dichlorobenzyl)-3,7-dimethyl-2,6-dioxo-2,3,6,7-tetrahydro-1H-purin-8-ylamino)picolinic acid] | 1000 to 5000
6 | Cn1c(Nc2cccc(CCC(N)=O)n2)nc2c1c(=O)n(Cc1cc3c(Cl)cccc3[nH]1)c(=O)n2C [Example 304, 3-(6-(1-((4-chloro-1H-indol-2-yl)methyl)-3,7-dimethyl-2,6-dioxo-2,3,6,7-tetrahydro-1H-purin-8-ylamino)pyridin-2-yl)propanamide] | 10 to 1000
7 | Cn1c(N[C@H]2C[C@H](CO)C2)nc2c1c(=O)n(Cc1cc3c(Cl)cccc3[nH]1)c(=O)n2C [Example 305, 1-((4-chloro-1H-indol-2-yl)methyl)-8-((1R,3R)-3-(hydroxymethyl)cyclobutylamino)-3,7-dimethyl-1H-purine-2,6(3H,7H)-dione] | 10 to 1000
8 | Cn1c(=O)n(Cc2ccc(Cl)c(Cl)c2)c(=O)c2c1nc(NC1CCCC(C(=O)O)C1)n2CC(N)=O (stereo not drawn) [Example 306, 3-(7-(2-amino-2-oxoethyl)-1-(3,4-dichlorobenzyl)-3-methyl-2,6-dioxo-2,3,6,7-tetrahydro-1H-purin-8-ylamino)cyclohexanecarboxylic acid] | 10 to 1000
9 | Cn1c(=O)n(Cc2ccc(Cl)c(Cl)c2)c(=O)c2c1nc(NC1CCCC(C(=O)O)C1)n2CC(=O)O (stereo not drawn) [Example 307, 3-(7-(carboxymethyl)-1-(3,4-dichlorobenzyl)-3-methyl-2,6-dioxo-2,3,6,7-tetrahydro-1H-purin-8-ylamino)cyclohexanecarboxylic acid] | 1000 to 5000
10 | Cn1c(NC2CCCC(C(=O)O)C2)nc2c1c(=O)n(Cc1cc3c(Cl)cccc3[nH]1)c(=O)n2C (stereo not drawn) [Example 308, 3-(1-((4-chloro-1H-indol-2-yl)methyl)-3,7-dimethyl-2,6-dioxo-2,3,6,7-tetrahydro-1H-purin-8-ylamino)cyclohexanecarboxylic acid] | 10 to 1000
11 | Cn1c(Nc2ccnc(C3CC(C(=O)O)C3)c2)nc2c1c(=O)n(Cc1ccc(Cl)c(Cl)c1)c(=O)n2C (stereo not drawn) [Example 309, 3-(4-(1-(3,4-dichlorobenzyl)-3,7-dimethyl-2,6-dioxo-2,3,6,7-tetrahydro-1H-purin-8-ylamino)pyridin-2-yl)cyclobutanecarboxylic acid] | 10 to 1000
12 | Cn1c(Nc2ccncc2)nc2c1c(=O)n(Cc1cc3c(F)cccc3[nH]1)c(=O)n2C [Example 310, 1-((4-fluoro-1H-indol-2-yl)methyl)-3,7-dimethyl-8-(pyridin-4-ylamino)-1H-purine-2,6(3H,7H)-dione] | 10 to 1000
13 | Cn1c(Nc2ccncc2)nc2c1c(=O)n(Cc1[nH]c3ccccc3c1Cl)c(=O)n2C [Example 311, 1-((3-chloro-1H-indol-2-yl)methyl)-3,7-dimethyl-8-(pyridin-4-ylamino)-1H-purine-2,6(3H,7H)-dione] | 10 to 1000
14 | Cn1c(Nc2ccncc2)nc2c1c(=O)n(Cc1cc3ccc(Cl)cc3[nH]1)c(=O)n2C [Example 312, 1-((6-chloro-1H-indol-2-yl)methyl)-3,7-dimethyl-8-(pyridin-4-ylamino)-1H-purine-2,6(3H,7H)-dione] | 10 to 1000
15 | Cn1c(Nc2ccc(C(N)=O)cc2)nc2c1c(=O)n(Cc1ccc(Cl)c(Cl)c1)c(=O)n2C [Example 313, 4-[[1-[(3,4-dichlorophenyl)methyl]-3,7-dimethyl-2,6-dioxo-purin-8-yl]amino]benzamide] | 10 to 1000
16 | Cn1c(Nc2ccc3c(c2)C(CC(=O)O)CC3)nc2c1c(=O)n(Cc1ccc(Cl)c(Cl)c1)c(=O)n2C (stereo not drawn) [Example 314, 2-(6-((1-(3,4-dichlorobenzyl)-3,7-dimethyl-2,6-dioxo-2,3,6,7-tetrahydro-1H-purin-8-yl)amino)-2,3-dihydro-1H-inden-1-yl)acetic acid] | 10 to 1000
17 | Cn1c(=O)n(Cc2ccc(Cl)c(Cl)c2)c(=O)c2c1nc(NC1CCCC(C(=O)O)C1)n2CCO (stereo not drawn) [Example 316, 3-(1-(3,4-dichlorobenzyl)-7-(2-hydroxyethyl)-3-methyl-2,6-dioxo-2,3,6,7-tetrahydro-1H-purin-8-ylamino)cyclohexanecarboxylic acid] | 10 to 1000
18 | Cn1c(=O)n(Cc2ccc(Cl)c(Cl)c2)c(=O)c2c1nc(NC1CCCC(C(=O)O)C1)n2CCC(N)=O (stereo not drawn) [Example 318, 3-(7-(3-amino-3-oxopropyl)-1-(3,4-dichlorobenzyl)-3-methyl-2,6-dioxo-2,3,6,7-tetrahydro-1H-purin-8-ylamino)cyclohexanecarboxylic acid] | 10 to 1000
19 | Cn1c(Nc2ccnc(C3CC(C(N)=O)C3)c2)nc2c1c(=O)n(Cc1ccc(Cl)c(Cl)c1)c(=O)n2C (stereo not drawn) [Example 319, 3-(4-(1-(3,4-dichlorobenzyl)-3,7-dimethyl-2,6-dioxo-2,3,6,7-tetrahydro-1H-purin-8-ylamino)pyridin-2-yl)cyclobutanecarboxamide] | 10 to 1000
20 | Cn1c(Nc2ccnc(C3CC(CO)C3)c2)nc2c1c(=O)n(Cc1ccc(Cl)c(Cl)c1)c(=O)n2C (stereo not drawn) [Example 320, 1-(3,4-dichlorobenzyl)-8-(2-(3-(hydroxymethyl)cyclobutyl)pyridin-4-ylamino)-3,7-dimethyl-1H-purine-2,6(3H,7H)-dione] | 10 to 1000
21 | Cn1c(Nc2ccc3c(c2)C(CCO)CC3)nc2c1c(=O)n(Cc1ccc(Cl)c(Cl)c1)c(=O)n2C (stereo not drawn) [Example 323, 1-(3,4-dichlorobenzyl)-8-((3-(2-hydroxyethyl)-2,3-dihydro-1H-inden-5-yl)amino)-3,7-dimethyl-1H-purine-2,6(3H,7H)-dione] | 1000 to 5000
22 | Cn1c(Nc2ccc3c(c2)CC(CO)C3)nc2c1c(=O)n(Cc1ccc(Cl)c(Cl)c1)c(=O)n2C (stereo not drawn) [Example 324, 1-(3,4-dichlorobenzyl)-8-((2-(hydroxymethyl)-2,3-dihydro-1H-inden-5-yl)amino)-3,7-dimethyl-1H-purine-2,6(3H,7H)-dione] | 1000 to 5000
23 | Cc1ccc2cc(Cn3c(=O)c4c(nc(Nc5ccncc5)n4C)n(C)c3=O)[nH]c2c1 [Example 326, 3,7-dimethyl-1-((6-methyl-1H-indol-2-yl)methyl)-8-(pyridin-4-ylamino)-1H-purine-2,6(3H,7H)-dione] | 10 to 1000
24 | Cc1cccc2[nH]c(Cn3c(=O)c4c(nc(N[C@H]5C[C@H](CO)C5)n4C)n(C)c3=O)cc12 [Example 327, 8-((1R,3R)-3-(hydroxymethyl)cyclobutylamino)-3,7-dimethyl-1-((4-methyl-1H-indol-2-yl)methyl)-1H-purine-2,6(3H,7H)-dione] | 10 to 1000
25 | Cc1cccc2[nH]c(Cn3c(=O)c4c(nc(Nc5ccncc5)n4C)n(C)c3=O)cc12 [Example 328, 1-((4-methyl-1H-indol-2-yl)methyl)-3,7-dimethyl-8-(pyridin-4-ylamino)-1H-purine-2,6(3H,7H)-dione] | 10 to 1000
26 | CN(C)C(=O)CCc1cccc(Nc2nc3c(c(=O)n(Cc4cc5c(Cl)cccc5[nH]4)c(=O)n3C)n2C)n1 [Example 329, 3-(6-(1-((4-chloro-1H-indol-2-yl)methyl)-3,7-dimethyl-2,6-dioxo-2,3,6,7-tetrahydro-1H-purin-8-ylamino)pyridin-2-yl)-N,N-dimethylpropanamide] | 10 to 1000
27 | CNC(=O)CCc1cccc(Nc2nc3c(c(=O)n(Cc4cc5c(Cl)cccc5[nH]4)c(=O)n3C)n2C)n1 [Example 330, 3-(6-(1-((4-chloro-1H-indol-2-yl)methyl)-3,7-dimethyl-2,6-dioxo-2,3,6,7-tetrahydro-1H-purin-8-ylamino)pyridin-2-yl)-N-methylpropanamide] | 10 to 1000
28 | Cn1c(Nc2ccc(C(=O)O)cc2)nc2c1c(=O)n(Cc1cc3c(Cl)cccc3[nH]1)c(=O)n2C [Example 331, 4-[[1-[(4-chloro-1H-indol-2-yl)methyl]-3,7-dimethyl-2,6-dioxo-purin-8-yl]amino]benzoic acid] | 10 to 1000
29 | COc1cc(Nc2nc3c(c(=O)n(Cc4cc5c(Cl)cccc5[nH]4)c(=O)n3C)n2C)ccn1 [Example 333, 1-[(4-chloro-1H-indol-2-yl)methyl]-8-[(2-methoxy-4-pyridyl)amino]-3,7-dimethyl-purine-2,6-dione] | 10 to 1000
30 | Cn1c(Nc2ccnc(C(F)(F)F)c2)nc2c1c(=O)n(Cc1cc3c(Cl)cccc3[nH]1)c(=O)n2C [Example 334, 1-[(4-chloro-1H-indol-2-yl)methyl]-8-[(2-trifluoromethyl-4-pyridyl)amino]-3,7-dimethyl-purine-2,6-dione] | 1000 to 5000
